Values of other authors, collected in patent US9339030B2, “Foamable pesticide compositions and methods of application” (BASF Corporation, priority 2009, dated 2016).

What was measured:
ants = conditions: general statement, no experiment described
termites = conditions: general statement, no experiment described

Compound: N#Cc1nn(-c2c(Cl)cc(C(F)(F)F)cc2Cl)c(N)c1[S+]([O-])C(F)(F)F (racemic) [fipronil, (±)-5-amino-1-(2,6-dichloro-α,α,α-trifluoro-p-tolyl)-4-trifluoromethylsulfinylpyrazole-3-carbonitrile]
- dose toxic to ants (ants): about 1 nanogram per ant
- dose toxic to termites (termites): 2 nanograms per termite
